In brackets after ≈: the same amount, converted by molar mass. Where two headings read alike, the source gives them in different places.
Assays:
Mtb H37Rv [1] = assay: TB MIC - SRI, resazurin-based microplate assay; format: cell-based, Mycobacterium tuberculosis; conditions: Mycobacterium tuberculosis, H37RV
Vero cells = conditions: African green monkey, 72 h
Mtb H37Rv [2] = assay: TB MIC - ITR (UIC), Institute for Tuberculosis Research; format: cell-based, Mycobacterium tuberculosis; conditions: Table P3
[3] = Tables P1-P3, read-out: TB MIC - SRI
[4] = read-out: Activity against H37Rv, Table P4
[5] = read-out: TB MIC - SRI, Tables P1-P3
[6] = Table P4, read-out: Activity against H37Rv

SMILES | MIC (Mtb H37Rv [1]; [3]) | VERO Tox-SRI (Vero cells) | other results
Nc1n[n+]([O-])c2cc3c(cc2[n+]1[O-])CCC3 [SRI-012398] | 2.5 µg/mL (≈ 11.5 µM) | – | –
CCNc1n[n+]([O-])c2cc(C)c(C)cc2[n+]1[O-] [SRI-012399] | 2.5 µg/mL (≈ 10.7 µM) | – | –
CC(C)(C)C1CCC(Nc2n[n+]([O-])c3cc(F)ccc3[n+]2[O-])CC1 (stereo not drawn) [SRI-012401] | 0.312 µg/mL (≈ 0.933 µM) | – | –
[O-][n+]1nc(NC2CCC2)[n+]([O-])c2cc3c(cc21)CCC3 [SRI-012403] | 0.625 µg/mL (≈ 2.3 µM) | 33.6 | –
Cc1cc2c(cc1C)[n+]([O-])c(NC1CCC1)n[n+]2[O-] [SRI-012459] | 0.625 µg/mL (≈ 2.4 µM) | 21.8 | –
Cc1cccc2c1[n+]([O-])c(NC1CCC1)n[n+]2[O-] [SRI-012460] | 0.312 µg/mL (≈ 1.27 µM) | 21.8 | –
COc1ccc2c(c1)[n+]([O-])nc(N[C@@H]1C[C@H]3CC[C@@H]1C3)[n+]2[O-] [SRI-012462] | 0.625 µg/mL (≈ 2.07 µM) | – | –
COc1ccc2c(c1)[n+]([O-])nc(NC1CCC1)[n+]2[O-] [SRI-012463] | 0.625 µg/mL (≈ 2.38 µM) | 9.85 | –
CCNc1n[n+]([O-])c2cc(Br)ccc2[n+]1[O-] [SRI-012464] | 0.625 µg/mL (≈ 2.19 µM) | – | –
[O-][n+]1nc(NC2CCC2)[n+]([O-])c2ccc(Br)cc21 [SRI-012465] | 0.156 µg/mL (≈ 0.501 µM) | – | –
[O-][n+]1nc(NC2CCCC2)[n+]([O-])c2ccc(Br)cc21 [SRI-012466] | 0.156 µg/mL (≈ 0.48 µM) | – | –
[O-][n+]1nc(N[C@@H]2C[C@H]3CC[C@@H]2C3)[n+]([O-])c2ccc(Br)cc21 [SRI-012467] | 0.312 µg/mL (≈ 0.888 µM) | 0.81 | –
CCNc1n[n+]([O-])c2cc(C)c(OC)cc2[n+]1[O-] [SRI-012468] | – | 100 | –
COc1cc2c(cc1C)[n+]([O-])nc(NC1CCC1)[n+]2[O-] [SRI-012469] | – | 50 | –
COc1cc2c(cc1C)[n+]([O-])nc(N[C@@H]1C[C@H]3CC[C@@H]1C3)[n+]2[O-] [SRI-012470] | – | 50 | –
Cc1cccc2c1[n+]([O-])c(NC1CCCC1)n[n+]2[O-] [SRI-012473] | 0.312 µg/mL (≈ 1.2 µM) | 3.7 | –
[O-][n+]1nc(N2CCCC2)[n+]([O-])c2ccccc21 [SRI-012495] | 0.312 µg/mL (≈ 1.34 µM) | – | TB MIC - UIC (Mtb H37Rv [2]): 17.4 µg/mL
CCNc1n[n+]([O-])c2cc3c(cc2[n+]1[O-])CCCC3 [SRI-012496] | – | 21.78 | MIC (Mtb H37Rv [1]; [4]): 1.25 µg/mL (≈ 4.8 µM); MIC (Mtb H37Rv [1]; [5]): 1.25 µg/mL (≈ 4.8 µM)
[O-][n+]1nc(NC2CCC2)[n+]([O-])c2cc3c(cc21)CCCC3 [SRI-012497] | – | 50 | MIC (Mtb H37Rv [1]; [4]): 1.25 µg/mL (≈ 4.37 µM); MIC (Mtb H37Rv [1]; [5]): 1.25 µg/mL (≈ 4.37 µM)
[O-][n+]1nc(NC2CC3CCC2C3)[n+]([O-])c2cc3c(cc21)CCCC3 (stereo not drawn) [SRI-012498] | – | 50 | MIC (Mtb H37Rv [1]; [4]): 1.25 µg/mL (≈ 3.83 µM); MIC (Mtb H37Rv [1]; [5]): 1.25 µg/mL (≈ 3.83 µM)
[O-][n+]1nc(N2CCCC2)[n+]([O-])c2cc3c(cc21)CCC3 [SRI-012530] | – | – | MIC (Mtb H37Rv [1]; [4]): 0.62 µg/mL (≈ 2.28 µM); MIC (Mtb H37Rv [1]; [5]): 0.625 µg/mL (≈ 2.3 µM)
[O-][n+]1nc(N2CCCCC2)[n+]([O-])c2cc3c(cc21)CCC3 [SRI-012562] | 0.625 µg/mL (≈ 2.18 µM) | – | –
CN(C)c1n[n+]([O-])c2cc3c(cc2[n+]1[O-])CCC3 [SRI-012563] | 0.625 µg/mL (≈ 2.54 µM) | – | –
CN(Cc1ccccc1)c1n[n+]([O-])c2cc3c(cc2[n+]1[O-])CCC3 [SRI-012564] | 0.312 µg/mL (≈ 0.968 µM) | – | –
CN(CCc1ccccc1)c1n[n+]([O-])c2cc3c(cc2[n+]1[O-])CCC3 [SRI-012565] | 0.312 µg/mL (≈ 0.927 µM) | – | –
O=S1(=O)CCN(c2n[n+]([O-])c3cc4c(cc3[n+]2[O-])CCC4)CC1 [SRI-012566] | 5 µg/mL (≈ 14.9 µM) | – | MIC (Mtb H37Rv [1]; [6]): 5 µg/mL (≈ 14.9 µM)
CC1CCCCN1c1n[n+]([O-])c2cc3c(cc2[n+]1[O-])CCC3 (stereo not drawn) [SRI-012567] | 1.25 µg/mL (≈ 4.16 µM) | – | MIC (Mtb H37Rv [1]; [6]): 1.25 µg/mL (≈ 4.16 µM)
CS(=O)(=O)N1CCN(c2n[n+]([O-])c3cc4c(cc3[n+]2[O-])CCC4)CC1 [SRI-012568] | 5 µg/mL (≈ 13.7 µM) | – | MIC (Mtb H37Rv [1]; [6]): 5 µg/mL (≈ 13.7 µM)

Source: patent US9663478B2, “Benzotriazine oxides as drugs targeting Mycobacterium tuberculosis” (priority 2011, dated 2017)
